Experimental data from patent US12435060B2, “Acylamino bridged heterocyclic compound, and composition and application thereof” (BEIJING SCITECH-MQ PHARMACEUTICALS LIMITED, priority 2019, dated 2025).

Test system: HT29 cells
Test: Inhibition of cell necrosis (CCK8 method), induced programmed necrosis of HT29 cells
Assay type: cell-based
Conditions: Homo sapiens, HT-29; rescue from necrosis induced by TNF-α 20 ng/mL, AT-406 1 μM, Z-VAD-FMK 20 μM; 16-20 hours; CCK-8, OD 450 nm
Experimental: Assay Example 2. Assay Method for Compounds Inhibiting Cell Necrosis (CCK8 Method)
In this assay example 2, under the condition of inducing programmed cell necrosis, different concentrations of the test compounds were added to test the IC50 of the rescue effect of the test compounds on the programmed necrosis.
• Compounds: Dissolved in DMSO to make a 10 mM solution; • TNF-α: The initial concentration was 100 μg/mL; • Z-VAD-FMK: Dissolved in DMSO to make a 10 mM solution; • AT-406: Dissolved in DMSO to make a 10 mM solution. I. Experimental Steps • 1) Compound dilution: All test compounds were dissolved in DMSO to prepare a 10 mM stock solution, and the first concentration gradient dilution of the test compounds was completed in DMSO. The gradient dilution factor was 4 times and 9 concentration gradients were made; A 40-fold overall dilution of all compounds was completed in the cell culture medium, and the resulting compound was 10× compound, which will be added to the wells of the 96-well plate containing cells, so that the final cell culture medium was 1× the designed final concentration. The general drug design is 9 concentration gradients, of which the highest final concentration is 25000 nM, the lowest concentration after 4-fold dilution of 9 concentrations is 0.38 nM, and the final concentration of DMSO in all wells is 0.25%. The compound dilution process is shown in FIG. 3. • 2) HT 29 cells in good growth condition were selected, trypsinized, the cells was collected by centrifugation, resuspended in McCOY's 5A complete medium (containing 10% FBS) and counted, and the number of cells and survival rate were recorded. • 3) Cells were inoculated to the 60 wells in the middle of the 96-well culture plate at a density of 12000 cells/80 μL/well, surrounding wells were filled with sterile water, and incubated overnight. • 4) 10 μL of the 10× compound diluted with the medium was added to the assay wells, 10 μL of McCOY's 5A complete medium containing 2.5% DMSO was added to the inducer-free wells and the control wells, mixed and shaked, and incubated for 30 minutes. • 5) Then 10 μL of inducer mixture (TNF-α, AT-406, Z-VAD-FMK with the final concentration of 20 ng/mL, 1 μM, 20 μM) was added into the assay wells and control wells. 10 μL McCOY's 5A complete medium was added to wells without inducer. Cells were cultured in an incubator with 5% CO2, at 37° C. • 6) After culturing for 16-20 hours, 10 μL of CCK-8 reagent was added to each well, and incubated for about 2 hours; • 7) The OD value was read at 450 nm on the multi-function plate reader. • 8) Data processing: Inhibition rate of necrosis (%)=100*(X−B)/(A−B) • A: The OD values of the wells without inducer (containing cells, CCK-8, without compound and inducer); • […]: OD values of assay wells (containing cells, CCK-8, compound, inducer); • B: OD values of control wells (containing cells, CCK-8, inducer, without compound). Then the value were imported into Graphpad Prism5 software for curve fitting and the IC50 values were calculated.

| Compound | IC50 |
| --- | --- |
| O=C(Nc1cc(-c2ccccc2)ccn1)c1nnc(Cc2ccccc2)[nH]1 [Example 1, 5-benzyl-N-(4-phenylpyridin-2-yl)-4H-1,2,4-triazole-3-carboxamide] | 1000 to 10000 nM |
| COc1ccccc1-c1ccnc(NC(=O)c2nnc(Cc3ccccc3)[nH]2)c1 [Example 3, 5-benzyl-N-(4-(2-methoxyphenyl)pyridin-2-yl)-4H-1,2,4-triazole-3-carboxamide] | 1000 to 10000 nM |
| CCOc1ccccc1-c1ccnc(NC(=O)c2nnc(Cc3ccccc3)[nH]2)c1 [Example 4, 5-benzyl-N-(4-(2-ethoxyphenyl)pyridin-2-yl)-4H-1,2,4-triazole-3-carboxamide] | 1000 to 10000 nM |
| CC(C)Oc1ccccc1-c1ccnc(NC(=O)c2nnc(Cc3ccccc3)[nH]2)c1 [Example 5, 5-benzyl-N-(4-(2-isopropyloxyphenyl)pyridin-2-yl)-4H-1,2,4-triazole-3-carboxamide] | > 10000 nM |
| O=C(Nc1cc(-c2ccccc2OC(F)(F)F)ccn1)c1nnc(Cc2ccccc2)[nH]1 [Example 6, 5-benzyl-N-(4-(2-(trifluoromethoxy)phenyl)pyridin-2-yl)-4H-1,2,4-triazole-3-carboxamide] | 1000 to 10000 nM |
| O=C(Nc1cc(-c2ccccc2Cl)ccn1)c1nnc(Cc2ccccc2)[nH]1 [Example 7, 5-benzyl-N-(4-(2-chlorophenyl)pyridin-2-yl)-4H-1,2,4-triazole-3-carboxamide] | 100 to 1000 nM |
| O=C(Nc1cc(-c2ccccc2C2CC2)ccn1)c1nnc(Cc2ccccc2)[nH]1 [Example 8, 5-benzyl-N-(4-(2-cyclopropylphenyl)pyridin-2-yl)-4H-1,2,4-triazole-3-carboxamide] | 1000 to 10000 nM |
| COc1ccc(-c2ccnc(NC(=O)c3nnc(Cc4ccccc4)[nH]3)c2)cc1 [Example 9, 5-benzyl-N-(4-(4-methoxyphenyl)pyridin-2-yl)-4H-1,2,4-triazole-3-carboxamide] | > 10000 nM |
| COc1ccc(-c2ccnc(NC(=O)c3nnc(Cc4ccccc4)[nH]3)c2)c(C)c1 [Example 10, 5-benzyl-N-(4-(4-methoxy-2-methylphenyl)pyridin-2-yl)-4H-1,2,4-triazole-3-carboxamide] | 1000 to 10000 nM |
| Cc1cc(Cl)ccc1-c1ccnc(NC(=O)c2nnc(Cc3ccccc3)[nH]2)c1 [Example 11, 5-benzyl-N-(4-(4-chloro-2-methylphenyl)pyridin-2-yl)-4H-1,2,4-triazole-3-carboxamide] | 1000 to 10000 nM |
| Cc1cc(C#N)ccc1-c1ccnc(NC(=O)c2nnc(Cc3ccccc3)[nH]2)c1 [Example 12, 5-benzyl-N-(4-(4-cyano-2-methylphenyl)pyridin-2-yl)-4H-1,2,4-triazole-3-carboxamide] | 100 to 1000 nM |
| COc1ccc(Cl)c(-c2ccnc(NC(=O)c3nnc(Cc4ccccc4)[nH]3)c2)c1 [Example 13, 5-benzyl-N-(4-(2-chloro-5-methoxyphenyl)pyridin-2-yl)-4H-1,2,4-triazole-3-carboxamide] | 1000 to 10000 nM |
| COc1ccc(F)cc1-c1ccnc(NC(=O)c2nnc(Cc3ccccc3)[nH]2)c1 [Example 14, 5-benzyl-N-(4-(5-fluoro-2-methoxyphenyl)pyridin-2-yl)-4H-1,2,4-triazole-3-carboxamide] | 1000 to 10000 nM |
| COc1ccc(Cl)cc1-c1ccnc(NC(=O)c2nnc(Cc3ccccc3)[nH]2)c1 [Example 15, 5-benzyl-N-(4-(5-chloro-2-methoxyphenyl)pyridin-2-yl)-4H-1,2,4-triazole-3-carboxamide] | 1000 to 10000 nM |
| COc1ccc(C)cc1-c1ccnc(NC(=O)c2nnc(Cc3ccccc3)[nH]2)c1 [Example 16, 5-benzyl-N-(4-(2-methoxy-5-methylphenyl)pyridin-2-yl)-4H-1,2,4-triazole-3-carboxamide] | 1000 to 10000 nM |
| COc1ccc(C(C)C)cc1-c1ccnc(NC(=O)c2nnc(Cc3ccccc3)[nH]2)c1 [Example 17, 5-benzyl-N-(4-(5-isopropyl-2-methoxyphenyl)pyridin-2-yl)-4H-1,2,4-triazole-3-carboxamide] | > 10000 nM |
| COc1ccc(OC)c(-c2ccnc(NC(=O)c3nnc(Cc4ccccc4)[nH]3)c2)c1 [Example 18, 5-benzyl-N-(4-(2,5-dimethoxyphenyl)pyridin-2-yl)-4H-1,2,4-triazole-3-carboxamide] | 1000 to 10000 nM |

| Compound | IC50 |
| --- | --- |
| COc1ccc(C(F)(F)F)cc1-c1ccnc(NC(=O)c2nnc(Cc3ccccc3)[nH]2)c1 [Example 19, 5-benzyl-N-(4-(2-methoxy-5-(trifluoromethyl)phenyl)pyridin-2-yl)-4H-1,2,4-triazole-3-carboxamide] | 1000 to 10000 nM |
| Cc1ncccc1-c1ccnc(NC(=O)c2nnc(Cc3ccccc3)[nH]2)c1 [Example 20, 5-benzyl-N-(2-methyl-[3,4′-bipyridin]-2′-yl)-4H-1,2,4-triazole-3-carboxamide] | 100 to 1000 nM |
| COc1ncccc1-c1ccnc(NC(=O)c2nnc(Cc3ccccc3)[nH]2)c1 [Example 21, 5-benzyl-N-(2-methoxy-[3,4′-bipyridin]-2′-yl)-4H-1,2,4-triazole-3-carboxamide] | 1000 to 10000 nM |
| CCOc1ncccc1-c1ccnc(NC(=O)c2nnc(Cc3ccccc3)[nH]2)c1 [Example 22, 5-benzyl-N-(2-ethoxy-[3,4′-bipyridin]-2′-yl)-4H-1,2,4-triazole-3-carboxamide] | 1000 to 10000 nM |
| CC(C)Oc1ncccc1-c1ccnc(NC(=O)c2nnc(Cc3ccccc3)[nH]2)c1 [Example 23, 5-benzyl-N-(2-isopropyloxy-[3,4′-bipyridin]-2′-yl)-4H-1,2,4-triazole-3-carboxamide] | > 10000 nM |
| Cc1cnccc1-c1ccnc(NC(=O)c2nnc(Cc3ccccc3)[nH]2)c1 [Example 24, 5-benzyl-N-(3′-methyl-[4,4′-bipyridin]-2-yl)-4H-1,2,4-triazole-3-carboxamide] | 100 to 1000 nM |
| COc1cnccc1-c1ccnc(NC(=O)c2nnc(Cc3ccccc3)[nH]2)c1 [Example 25, 5-benzyl-N-(3′-methoxy-[4,4′-bipyridin]-2-yl)-4H-1,2,4-triazole-3-carboxamide] | 1000 to 10000 nM |
| Cn1nccc1-c1ccnc(NC(=O)c2nnc(Cc3ccccc3)[nH]2)c1 [Example 26, 5-benzyl-N-(4-(1-methyl-1H-pyrazol-5-yl)pyridin-2-yl)-4H-1,2,4-triazole-3-carboxamide] | 100 to 1000 nM |
| Cc1cc(-c2ccnc(NC(=O)c3nnc(Cc4ccccc4)[nH]3)c2)n(C)n1 [Example 27, 5-benzyl-N-(4-(1,3-dimethyl-1H-pyrazol-5-yl)pyridin-2-yl)-4H-1,2,4-triazole-3-carboxamide] | 1000 to 10000 nM |
| Cn1nc(C(F)(F)F)cc1-c1ccnc(NC(=O)c2nnc(Cc3ccccc3)[nH]2)c1 [Example 28, 5-benzyl-N-(4-(1-methyl-3-(trifluoromethyl)-1H-pyrazol-5-yl)pyridin-2-yl)-4H-1,2,4-triazole-3-carboxamide] | 1000 to 10000 nM |
| Cc1ccccc1-c1cncc(NC(=O)c2nnc(Cc3ccccc3)[nH]2)c1 [Example 29, 5-benzyl-N-(5-(o-methylphenyl)pyridin-3-yl)-4H-1,2,4-triazole-3-carboxamide] | > 10000 nM |
| O=C(Nc1cncc(-c2ccccc2Cl)c1)c1nnc(Cc2ccccc2)[nH]1 [Example 30, 5-benzyl-N-(5-(2-chlorophenyl)pyridin-3-yl)-4H-1,2,4-triazole-3-carboxamide] | > 10000 nM |
| COc1ccc(Cl)c(-c2cncc(NC(=O)c3nnc(Cc4ccccc4)[nH]3)c2)c1 [Example 31, 5-benzyl-N-(5-(2-chloro-5-methoxyphenyl)pyridin-3-yl)-4H-1,2,4-triazole-3-carboxamide] | > 10000 nM |
| CC(C)n1nc(C(F)(F)F)cc1-c1ccnc(NC(=O)c2nnc(Cc3ccccc3)[nH]2)c1 [Example 32, 5-benzyl-N-(4-(1-isopropyl-3-(trifluoromethyl)-1H-pyrazol-5-yl)pyridin-2-yl)-4H-1,2,4-triazole-3-carboxamide] | > 10000 nM |
| Cc1ccc(F)cc1-c1ccnc(NC(=O)c2nnc(Cc3ccccc3)[nH]2)c1 [Example 33, 5-benzyl-N-(4-(5-fluoro-2-methylphenyl)pyridin-2-yl)-4H-1,2,4-triazole-3-carboxamide] | 100 to 1000 nM |
| Cc1ccc(Cl)cc1-c1ccnc(NC(=O)c2nnc(Cc3ccccc3)[nH]2)c1 [Example 34, 5-benzyl-N-(4-(5-chloro-2-methylphenyl)pyridin-2-yl)-4H-1,2,4-triazole-3-carboxamide] | 100 to 1000 nM |
